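Protocol summary: plate cells (96-well), add compound at 5 concentrations, incubate 48 h, interpolate endpoints linearly. GI50 = concentration required for 50% inhibition of growth. TGI is the concentration that stops growth completely.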
How the values were obtained:
Test in all cases: inhibition of tumour cell growth, NCI panel, 48 h
786-0 renal = system: 786-0 renal
NCI-H460 lung = system: NCI-H460 lung
KM12 colon = system: KM12 colon
BT-549 breast = system: BT-549 breast
HCC-2998 colon = system: HCC-2998 colon
OVCAR-5 ovarian = system: OVCAR-5 ovarian
EKVX NSCLC = system: EKVX NSCLC
SN12C renal = system: SN12C renal
SF-295 CNS = system: SF-295 CNS
UO-31 renal = system: UO-31 renal

Compound | GI50 (786-0 renal) [µM] | TGI (786-0 renal) [µM] | GI50 (NCI-H460 lung) [µM] | TGI (NCI-H460 lung) [µM] | GI50 (KM12 colon) [µM] | TGI (KM12 colon) [µM] | GI50 (BT-549 breast) [µM] | TGI (BT-549 breast) [µM] | GI50 (HCC-2998 colon) [µM] | TGI (HCC-2998 colon) [µM] | GI50 (OVCAR-5 ovarian) [µM] | TGI (OVCAR-5 ovarian) [µM] | GI50 (EKVX NSCLC) [µM] | TGI (EKVX NSCLC) [µM] | GI50 (SN12C renal) [µM] | TGI (SN12C renal) [µM] | GI50 (SF-295 CNS) [µM] | TGI (SF-295 CNS) [µM] | GI50 (UO-31 renal) [µM] | TGI (UO-31 renal) [µM]
O=C(NNS(=O)(=O)c1ccc(F)cc1)c1cccnc1Nc1ccc(Cl)cc1Cl | 23 | 53.6 | 31.4 | > 100 | 23 | 48.5 | 36 | > 100 | 30 | > 100 | 52.2 | > 100 | 29.5 | > 100 | 17.6 | 31.7 | 36.9 | > 100 |  | 
CO[C@@]12C[C@H]3[C@@H]([C@@H](O)[C@@H](OC(=O)/C=C/c4ccccc4)[C@@]4(O)C(C)(C)CCC[C@]34C)[C@@H](C)C1=CC(=O)O2 | 24.8 | > 100 | 12.4 | 82.9 | 6.74 | 28.6 | 11.3 | 27.9 |  |  | 17.1 | 48 | 5.36 | 57.5 | 4.84 | 19.5 | 3.84 | 44.1 | 16.6 | > 100
CC1CCP(=O)(c2ccccc2)CC1 (centres undefined) |  | > 100 |  | > 100 |  | > 100 |  |  |  | > 100 |  | > 100 |  | > 100 |  | > 100 |  | > 100 |  | > 100
O=[N+]([O-])/C=C\c1c[nH]c2ccc(OCc3ccccc3)cc12 |  | 4.56 |  | 25.1 |  | 8.86 |  |  |  | 3.66 |  | 25.6 |  | 29.3 |  | 10 |  | 23.8 |  | 15.2

— PubChem BioAssay (NCI)
